Our source for the activity values is PMC8880564, “Design, Synthesis, and Biological Evaluation of a Novel VEGFR-2 Inhibitor Based on a 1,2,5-Oxadiazole-2-Oxide Scaffold with MAPK Signaling Pathway Inhibition” (Pharmaceuticals, 2022).

Assay in all cases: NCI-60 one-dose SRB screening
Holding throughout (assay type): cell-based

In one assay the test system is ACHN. The note with it: Homo sapiens, Renal Cancer, 10 µM one dose, 48 h, read-out: growth percentage.
A further assay concerns BT-549. The note with it: Homo sapiens, BT-549, Breast Cancer, 10 µM one dose, 48 h, read-out: growth percentage.
In the next assay the test system is CCRF-CEM. The note with it: Homo sapiens, Leukemia, 10 µM one dose, 48 h, read-out: growth percentage.
A further assay deals with COLO 205. Particulars: Homo sapiens, COLO 205, Colon Cancer, 10 µM one dose, 48 h, read-out: growth percentage.
Another assay deals with EKVX. The note with it: Homo sapiens, Non-Small Cell Lung Cancer, 10 µM one dose, 48 h, read-out: growth percentage.
The subject of the next assay is HCC-2998. Particulars: Homo sapiens, HCC-2998, Colon Cancer, 10 µM one dose, 48 h, read-out: growth percentage.
A further assay relates to HOP-62. The note with it: Homo sapiens, HOP-62, Non-Small Cell Lung Cancer, 10 µM one dose, 48 h, read-out: growth percentage.
Another assay concerns HT29. Particulars: Homo sapiens, HT-29, HT29, Colon Cancer, 10 µM one dose, 48 h, read-out: growth percentage.
In a further assay the test system is MCF7. The note with it: Homo sapiens, MCF7, Breast Cancer, 10 µM one dose, 48 h, read-out: growth percentage.
The subject of another assay is MDA-MB-468. Particulars: Homo sapiens, MDA-MB-468, Breast Cancer, 10 µM one dose, 48 h, read-out: growth percentage.
Another assay relates to NCI-H322M. The note with it: Homo sapiens, Non-Small Cell Lung Cancer, 10 µM one dose, 48 h, read-out: growth percentage.
Another assay concerns NCI/ADR-RES. The note with it: Homo sapiens, Ovarian Cancer, 10 µM one dose, 48 h, read-out: growth percentage.
For another assay, the system named is OVCAR-4. The note with it: Homo sapiens, OVCAR-4, Ovarian Cancer, 10 µM one dose, 48 h, read-out: growth percentage.
A further assay deals with PC-3. The note with it: Homo sapiens, PC-3, Prostate Cancer, 10 µM one dose, 48 h, read-out: growth percentage.
The test system of a further assay is RPMI-8226. Particulars: Homo sapiens, RPMI-8226, Leukemia, 10 µM one dose, 48 h, read-out: growth percentage.
A further assay has as its system SF-295. Particulars: Homo sapiens, SF-295, CNS Cancer, 10 µM one dose, 48 h, read-out: growth percentage.
Another assay has as its system SF-539. Particulars: Homo sapiens, SF-539, CNS Cancer, 10 µM one dose, 48 h, read-out: growth percentage.
The next assay relates to SK-MEL-2. Particulars: Homo sapiens, SK-MEL-2, Melanoma, 10 µM one dose, 48 h, read-out: growth percentage.
In the next assay the test system is SK-OV-3. The note with it: Homo sapiens, SK-OV-3, Ovarian Cancer, 10 µM one dose, 48 h, read-out: growth percentage.
A further assay deals with SN12C. Particulars: Homo sapiens, Renal Cancer, 10 µM one dose, 48 h, read-out: growth percentage.
The subject of the next assay is SNB-19. The note with it: Homo sapiens, SNB-19, CNS Cancer, 10 µM one dose, 48 h, read-out: growth percentage.
A further assay relates to SW-620. The note with it: Homo sapiens, SW-620, Colon Cancer, 10 µM one dose, 48 h, read-out: growth percentage.
The test system of another assay is UACC-257. The note with it: Homo sapiens, UACC-257, Melanoma, 10 µM one dose, 48 h, read-out: growth percentage.

For the compound `Cc1nc(Nc2ccc(OCc3c(-c4ccccc4)no[n+]3[O-])cc2)c2c(C)nn(-c3ccc(Br)cc3)c2n1` [6h, 3-((4-((1-(4-bromophenyl)-3,6-dimethyl-1H-pyrazolo[3,4-d]pyrimidin-4-yl)amino)phenoxy)methyl)-4-phenyl-1,2,5-oxadiazole 2-oxide], the activity at 10 µM was 98.7% in the assay on ACHN; 91.1% in the assay on BT-549; 103% in the assay with CCRF-CEM; 94.4% in the assay on COLO 205; 92.3% in the assay on EKVX; 106% in the assay on HCC-2998. The activity at 10 µM came out at 104% in the assay on HOP-62; 90% in the assay with HT29; 87.4% with MCF7; 116% with MDA-MB-468; 94.4% with NCI-H322M; 102% in the assay with NCI/ADR-RES. In addition, the activity at 10 µM was found to be 97% with OVCAR-4; 67.4% with PC-3; 90.6% in the assay with RPMI-8226; 105% with SF-295; 96.1% in the assay with SF-539; 96.9% in the assay with SK-MEL-2. The activity at 10 µM in the assay with SK-OV-3 was 109%; in the assay on SN12C it was 96.4%; in the assay on SNB-19, 94.5%; in the assay on SW-620, 101%; in the assay with UACC-257, 99.8%.
For `Cc1nn(-c2ccccc2)c2nc(C(F)(F)F)nc(Nc3ccc(NCc4c(-c5ccccc5)no[n+]4[O-])cc3)c12` [12a, 3-(((4-((3-methyl-1-phenyl-6-(trifluoromethyl)-1H-pyrazolo[3,4-d]pyrimidin-4-yl)amino)phenyl)amino)methyl)-4-phenyl-1,2,5-oxadiazole 2-oxide], the activity at 10 µM with ACHN was found to be 77.7%; with BT-549, 103%; in the assay on CCRF-CEM it was 59.2%; in the assay with COLO 205, 73.6%; with EKVX it was 73.2%; with HCC-2998, 85.6%. Also, the activity at 10 µM with HOP-62 worked out at 93.1%; with HT29, 61.5%; in the assay on MCF7, 58.5%; with MDA-MB-468, 75.8%; with NCI-H322M, 77.6%; in the assay on NCI/ADR-RES, 83%. The activity at 10 µM is 70.8% in the assay on OVCAR-4; 45.6% with PC-3; 83.4% with RPMI-8226; 76.6% in the assay with SF-295; 78.1% with SF-539; 106% with SK-MEL-2. The activity at 10 µM is 96.9% in the assay on SK-OV-3; 77.7% in the assay on SN12C; 88% in the assay on SNB-19; 86% in the assay with SW-620; 103% in the assay with UACC-257.
For `[O-][n+]1onc(-c2ccccc2)c1CNc1ccc(Nc2nc(C(F)(F)F)nc3c2cnn3-c2ccc(Br)cc2)cc1` [12b, 3-(((4-((1-(4-bromophenyl)-6-(trifluoromethyl)-1H-pyrazolo[3,4-d]pyrimidin-4-yl)amino)phenyl)amino)methyl)-4-phenyl-1,2,5-oxadiazole 2-oxide], the activity at 10 µM in the assay on ACHN is 56.9%; in the assay on BT-549 it was 97.5%; with CCRF-CEM it was 48.5%; with COLO 205, 74.6%; in the assay on EKVX it was 65.4%; in the assay with HCC-2998, 75.1%. Further, the activity at 10 µM with HOP-62 turned out to be 77.9%; in the assay on HT29 it was 43.9%; in the assay with MCF7, 38.8%; with MDA-MB-468, 72%; with NCI-H322M it was 74.1%; in the assay on NCI/ADR-RES, 66.4%. The activity at 10 µM with OVCAR-4 came out at 78.5%; in the assay with PC-3, 48.2%; in the assay with RPMI-8226, 73.8%; in the assay on SF-295, 54.5%; in the assay with SF-539, 68.3%; in the assay with SK-MEL-2 it was 99.8%. Further, the activity at 10 µM in the assay with SK-OV-3 is 88.8%; in the assay on SN12C, 58%; in the assay with SNB-19 it was 78.9%; in the assay with SW-620 it was 84.8%; with UACC-257, 102%.
On to `Cc1nn(-c2ccc(Br)cc2)c2nc(C(F)(F)F)nc(Nc3ccc(NCc4c(-c5ccccc5)no[n+]4[O-])cc3)c12` [12c, 3-(((4-((1-(4-bromophenyl)-3-methyl-6-(trifluoromethyl)-1H-pyrazolo[3,4-d]pyrimidin-4-yl)amino)phenyl)amino)methyl)-4-phenyl-1,2,5-oxadiazole 2-oxide], for which the activity at 10 µM in the assay with ACHN amounted to 68.1%; with BT-549, 97.4%; with CCRF-CEM, 60.4%; with COLO 205, 73.2%; with EKVX, 71.1%; with HCC-2998 it was 96.1%. For the same compound, the activity at 10 µM in the assay on HOP-62 was 68.3%; in the assay with HT29 it was 70.4%; in the assay on MCF7, 68.2%; in the assay on MDA-MB-468, 84.2%; in the assay on NCI-H322M, 85.1%; in the assay with NCI/ADR-RES it was 88.8%. The activity at 10 µM was 81.3% in the assay with OVCAR-4; 47% in the assay with PC-3; 91.1% in the assay with RPMI-8226; 57.5% in the assay on SF-295; 59.4% in the assay on SF-539; 104% in the assay with SK-MEL-2. For the same compound, the activity at 10 µM with SK-OV-3 stood at 82.7%; in the assay with SN12C, 76.2%; with SNB-19, 84.1%; in the assay with SW-620, 79.7%; in the assay with UACC-257 it was 95.7%.
Regarding `O=c1[nH]c(CCl)nc2c1cnn2-c1ccccc1` [13a], the activity at 10 µM in the assay on ACHN worked out at 96.7%; in the assay with BT-549 it was 94.1%; in the assay with CCRF-CEM, 101%; in the assay on COLO 205, 114%; with EKVX it was 100%; with HCC-2998, 105%. The activity at 10 µM came to 125% with HOP-62; 115% in the assay with HT29; 79.5% in the assay with MCF7; 96.6% with MDA-MB-468; 101% in the assay on NCI-H322M; 104% with NCI/ADR-RES. In addition, the activity at 10 µM in the assay with OVCAR-4 stood at 100%; in the assay on PC-3, 105%; with RPMI-8226 it was 82.5%; in the assay on SF-295 it was 110%; in the assay on SF-539, 97.1%; with SK-MEL-2, 104%. The activity at 10 µM in the assay on SK-OV-3 stood at 106%; in the assay with SN12C it was 99.8%; in the assay on SNB-19, 96.3%; in the assay on SW-620, 102%; in the assay on UACC-257, 99%.
Consider `Cc1nn(-c2ccc(Br)cc2)c2nc(CCl)[nH]c(=O)c12` [13c], for which the activity at 10 µM is 94.8% with ACHN; 101% with BT-549; 83.7% in the assay on CCRF-CEM; 103% with COLO 205; 99.5% in the assay on EKVX; 105% with HCC-2998. For the same compound, the activity at 10 µM with HOP-62 turned out to be 98.5%; in the assay on HT29 it was 104%; in the assay with MCF7, 82.3%; in the assay with MDA-MB-468 it was 94%; in the assay with NCI-H322M, 104%; in the assay on NCI/ADR-RES it was 102%. Moreover, the activity at 10 µM is 116% in the assay with OVCAR-4; 96.3% with PC-3; -53.9% in the assay on RPMI-8226; 100% in the assay on SF-295; 77% in the assay on SF-539; 103% in the assay on SK-MEL-2. For the same compound, the activity at 10 µM was determined as 104% in the assay on SK-OV-3; 100% with SN12C; 97.1% with SNB-19; 110% with SW-620; 102% in the assay with UACC-257.
